IC50 data for 26 compounds are collected here from patent publication US11548868B2, “Heterocyclic compounds, compositions comprising heterocyclic compound, and methods of use thereof” (JS INNOPHARM (SHANGHAI) LTD, priority 2017, dated 2023).

In experiment [1] the target is T1, TDO2 in A172 cancer cells (Homo sapiens, UniProt P48775).
T1 construct: endogenous in cells; host or cells: A172 cancer cells
Kind of experiment: TDO2 Cellular Assay (kynurenine production in A172 cancer cells). To be noted: L-Trp 1 mM, 24 hours incubation, kynurenine at 490 nm. It is filed as cell-based. The method, boiled down: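 Kynurenine output of A172 cells was read colorimetrically at 490 nm (Ehrlich reagent after TCA hydrolysis at 50 °C). Cells had 1 mM L-Trp plus compound at 0–25 μM in 0.25% DMSO for 24 h; IC50 values were fitted non-linearly from percent inhibition relative to vehicle.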

In experiment [2] the target is T2, IDO1 in Hela cancer cells (Homo sapiens, UniProt P14902).
T2 construct: endogenous in cells; host or cells: Hela cancer cells stimulated with human IFN-γ
T2 sequence (P14902 whole entry): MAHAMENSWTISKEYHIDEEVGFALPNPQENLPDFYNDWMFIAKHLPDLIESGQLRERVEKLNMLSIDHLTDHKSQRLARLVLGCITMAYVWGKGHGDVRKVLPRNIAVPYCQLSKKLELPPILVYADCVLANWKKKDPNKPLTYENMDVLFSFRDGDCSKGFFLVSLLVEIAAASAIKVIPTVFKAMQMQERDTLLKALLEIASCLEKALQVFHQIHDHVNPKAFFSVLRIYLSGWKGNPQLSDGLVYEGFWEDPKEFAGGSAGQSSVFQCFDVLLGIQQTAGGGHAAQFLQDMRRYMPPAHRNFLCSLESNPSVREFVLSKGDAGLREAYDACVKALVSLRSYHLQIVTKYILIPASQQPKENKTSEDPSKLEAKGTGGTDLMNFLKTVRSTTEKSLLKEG
Kind of experiment: IDO1 Cellular Assay (kynurenine production in IFN-γ stimulated Hela cancer cells). The class given is cell-based. To be noted: human IFN-γ 50 ng/mL, 48 hours incubation, kynurenine at 490 nm. The method, boiled down:
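HeLa cells stimulated with 50 ng/mL IFN-γ (final) and treated 48 h with compound (0–25 μM final, 0.25% DMSO). Supernatant kynurenine measured after TCA hydrolysis and p-dimethylaminobenzaldehyde reaction at 490 nm; inhibition vs DMSO control, IC50 by non-linear regression.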

Some results are limits rather than exact numbers.

T1 sequence (P48775 whole entry): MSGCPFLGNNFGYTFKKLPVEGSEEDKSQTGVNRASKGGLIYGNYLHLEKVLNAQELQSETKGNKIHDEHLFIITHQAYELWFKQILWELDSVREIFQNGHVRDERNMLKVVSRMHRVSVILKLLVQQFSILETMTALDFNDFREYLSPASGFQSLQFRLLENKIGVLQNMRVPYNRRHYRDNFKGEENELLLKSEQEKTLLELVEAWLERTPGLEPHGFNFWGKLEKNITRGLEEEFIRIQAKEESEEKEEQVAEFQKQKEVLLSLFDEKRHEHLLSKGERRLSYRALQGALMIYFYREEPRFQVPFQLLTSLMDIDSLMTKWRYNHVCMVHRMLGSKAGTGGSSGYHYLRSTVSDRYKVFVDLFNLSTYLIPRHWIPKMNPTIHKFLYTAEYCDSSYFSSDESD

Take `CS(=O)(=O)N[C@H]1[C@@H]2C[C@@](O)(c3cc(C(F)(F)F)cc4[nH]ncc34)C[C@@H]21` [Example 10, N-((1R,3r,5S,6r)-3-hydroxy-3-(6-(trifluoromethyl)-1H-indazol-4-yl)bicyclo[3.1.0]hexan-6-yl)methanesulfonamide]: the results for the half-maximal inhibitory concentration (IC50) in experiment [1] and in experiment [2] were not above 500 nM and 1000 to 5000 nM, respectively.
On the same counts, the results for `O=S(=O)(CC(F)(F)F)N[C@H]1[C@@H]2C[C@@](O)(c3cc(Cl)cc4[nH]ncc34)C[C@@H]21` [Example 139, N-((1R,3r,5S,6r)-3-(6-chloro-1H-indazol-4-yl)-3-hydroxybicyclo[3.1.0]hexan-6-yl)-2,2,2-trifluoroethanesulfonamide] are not above 500 nM and 500 to 1000 nM.
On the same counts, the results for `CS(=O)(=O)N1C[C@@H]2C[C@@](O)(c3cc(Cl)cc4cn[nH]c34)C[C@@H]2C1` [Example 96, (3aR,5r,6aS)-5-(5-chloro-1H-indazol-7-yl)-2-(methylsulfonyl)octahydrocyclopenta[c]pyrrol-5-ol] are 1000 to 5000 nM and 1000 to 5000 nM.
`CNC(=O)N[C@H]1[C@@H]2C[C@@](O)(c3cc(Cl)cc4[nH]ncc34)C[C@@H]21` [Example 114, 1-((1R,3r,5S,6r)-3-(6-chloro-1H-indazol-4-yl)-3-hydroxybicyclo[3.1.0]hexan-6-yl)-3-methylurea]: the IC50 – broadly, the point on the concentration scale where inhibition reaches its midpoint – in experiment [1] is not above 500 nM; in experiment [2], more than 5000 nM.
On the same counts, the results for `O=C(N[C@H]1[C@@H]2C[C@@](O)(c3cc(Cl)cc4[nH]ncc34)C[C@@H]21)c1ccnc2ccccc12` [Example 169, N-((1R,3r,5S,6r)-3-(6-chloro-1H-indazol-4-yl)-3-hydroxybicyclo[3.1.0]hexan-6-yl)quinoline-4-carboxamide] are not above 500 nM and 1000 to 5000 nM.
For `O=C(N[C@H]1[C@@H]2C[C@@](O)(c3cc(Cl)cc4[nH]ncc34)C[C@@H]21)c1cccc(Br)c1` [Example 146, 3-bromo-N-((1R,3r,5S,6r)-3-(6-chloro-1H-indazol-4-yl)-3-hydroxybicyclo[3.1.0]hexan-6-yl)benzamide], the 50% inhibitory concentration (IC50) in experiment [1] and in experiment [2] was not above 500 nM in each case.
As to `O[C@@H]1C[C@@H]2C[C@@](O)(c3cc(Cl)cc4cn[nH]c34)C[C@@H]2C1` [Example 106, (2r,3aR,5s,6aS)-2-(5-chloro-1H-indazol-7-yl)octahydropentalene-2,5-diol], the results for the IC50 in experiment [1] and in experiment [2] were 500 to 1000 nM and more than 5000 nM, respectively.
In the case of `CS(=O)(=O)N[C@H]1[C@@H]2C[C@@](O)(c3cc(Cl)cc4[nH]ncc34)C[C@@H]21` [Example 63, N-((1R,3r,5S,6r)-3-(6-chloro-1H-indazol-4-yl)-3-hydroxybicyclo[3.1.0]hexan-6-yl)methanesulfonamide], the values for the half-maximal inhibitory concentration (IC50) in experiment [1] and in experiment [2] were not above 500 nM and 500 to 1000 nM, respectively.
Turning to `O=C(C1CC1)N1C[C@@H]2C[C@@](O)(c3cc(Cl)cc4cn[nH]c34)C[C@@H]2C1` [Example 99, ((3aR,5r,6aS)-5-(5-chloro-1H-indazol-7-yl)-5-hydroxyhexahydrocyclopenta[c]pyrrol-2(1H)-yl)(cyclopropyl)methanone], the figures for the concentration for half-maximal inhibition (IC50) in experiment [1] and in experiment [2] were 1000 to 5000 nM and more than 5000 nM, respectively.
The matching figures for `O=C(Cc1ccc(Cl)cc1)N1C[C@@H]2C[C@@](O)(c3cc(Cl)cc4[nH]ncc34)C[C@@H]2C1` [Example 175, 1-((3aR,5r,6aS)-5-(6-chloro-1H-indazol-4-yl)-5-hydroxyhexahydrocyclopenta[c]pyrrol-2(1H)-yl)-2-(4-chlorophenyl)ethanone]: not above 500 nM and 1000 to 5000 nM.
The matching figures for `O=C(N[C@H]1[C@@H]2C[C@@](O)(c3cc(Cl)cc4[nH]ncc34)C[C@@H]21)c1cccc(C2CC2)c1` [Example 178, N-((1R,3r,5S,6r)-3-(6-chloro-1H-indazol-4-yl)-3-hydroxybicyclo[3.1.0]hexan-6-yl)-3-cyclopropylbenzamide]: not above 500 nM and not above 500 nM.
For the compound `CC(=O)N[C@H]1[C@@H]2C[C@@](O)(c3cc(Cl)cc4cn[nH]c34)C[C@@H]21` [Example 108, N-((1R,3r,5S,6r)-3-(5-chloro-1H-indazol-7-yl)-3-hydroxybicyclo[3.1.0]hexan-6-yl)acetamide], the IC50 in experiment [1] is not above 500 nM; in experiment [2], more than 5000 nM.
Regarding `Cc1cc(C(=O)N[C@H]2[C@@H]3C[C@@](O)(c4cc(Cl)cc5[nH]ncc45)C[C@@H]32)no1` [Example 154, N-((1R,3r,5S,6r)-3-(6-chloro-1H-indazol-4-yl)-3-hydroxybicyclo[3.1.0]hexan-6-yl)-5-methylisoxazole-3-carboxamide], the half-maximal inhibitory concentration (IC50) in experiment [1] is not above 500 nM; in experiment [2], 500 to 1000 nM.
For `CC(=O)N1C[C@@H]2CN(c3cc(C(F)(F)F)cn4cncc34)C[C@@H]2C1(C)C` (racemic) [Example 45, Racemic-1-((3aS,6aR)-1,1-dimethyl-5-(6-(trifluoromethyl)imidazo[1,5-a]pyridin-8-yl)hexahydropyrrolo[3,4-c]pyrrol-2(1H)-yl)ethanone], the IC50 in experiment [1] was 1000 to 5000 nM; in experiment [2], more than 5000 nM.
On the same counts, the results for `CNC(=O)N[C@H]1[C@@H]2C[C@@](O)(c3cc(Cl)cc4cn[nH]c34)C[C@@H]21` [Example 133, 1-((1R,3r,5S,6r)-3-(5-chloro-1H-indazol-7-yl)-3-hydroxybicyclo[3.1.0]hexan-6-yl)-3-methylurea] are 1000 to 5000 nM and more than 5000 nM.
On the same counts, the results for `O=C(Cc1ccc(Cl)cc1)N[C@H]1[C@@H]2C[C@@](O)(c3cc(Cl)cc4[nH]ncc34)C[C@@H]21` [Example 149, N-((1R,3r,5S,6r)-3-(6-chloro-1H-indazol-4-yl)-3-hydroxybicyclo[3.1.0]hexan-6-yl)-2-(4-chlorophenyl)acetamide] are not above 500 nM and not above 500 nM.
On the same counts, the results for `O=S(=O)(N[C@H]1[C@@H]2C[C@@](O)(c3cc(Cl)cc4cn[nH]c34)C[C@@H]21)c1ccccc1` [Example 131, N-((1R,3r,5S,6r)-3-(5-chloro-1H-indazol-7-yl)-3-hydroxybicyclo[3.1.0]hexan-6-yl)benzenesulfonamide] are 1000 to 5000 nM and more than 5000 nM.
As for `C#Cc1cccc(C(=O)N[C@H]2[C@@H]3C[C@@](O)(c4cc(Cl)cc5[nH]ncc45)C[C@@H]32)c1` [Example 174, N-((1R,3r,5S,6r)-3-(6-chloro-1H-indazol-4-yl)-3-hydroxybicyclo[3.1.0]hexan-6-yl)-3-ethynylbenzamide], the IC50 in experiment [1] and in experiment [2] was not above 500 nM each time.
In the case of `N#Cc1ccc(S(=O)(=O)N2C[C@@H]3C[C@@](O)(c4cc(Cl)cc5[nH]ncc45)C[C@@H]3C2)cc1` [Example 39, 4-(((3aR,5r,6aS)-5-(6-chloro-1H-indazol-4-yl)-5-hydroxyhexahydrocyclopenta[c]pyrrol-2(1H)-yl)sulfonyl)benzonitrile], the concentration for half-maximal inhibition (IC50) in experiment [1] is not above 500 nM; in experiment [2], more than 5000 nM.
Turning to `O=C(N[C@H]1[C@@H]2C[C@@](O)(c3cc(Cl)cc4[nH]ncc34)C[C@@H]21)c1ccnc2ccc(F)cc12` [Example 177, N-((1R,3r,5S,6r)-3-(6-chloro-1H-indazol-4-yl)-3-hydroxybicyclo[3.1.0]hexan-6-yl)-6-fluoroquinoline-4-carboxamide], the IC50 in experiment [1] is not above 500 nM; in experiment [2], 500 to 1000 nM.
On the same counts, the results for `O=C(N[C@H]1[C@@H]2C[C@@](O)(c3cc(Cl)cc4[nH]ncc34)C[C@@H]21)c1ccc(F)c(F)c1` [Example 168, N-((1R,3r,5S,6r)-3-(6-chloro-1H-indazol-4-yl)-3-hydroxybicyclo[3.1.0]hexan-6-yl)-3,4-difluorobenzamide] are not above 500 nM and not above 500 nM.
On the same counts, the results for `O=C(N[C@H]1[C@@H]2C[C@@](O)(c3cc(Cl)cc4[nH]ncc34)C[C@@H]21)c1ccnc(OC(F)(F)F)c1` [Example 161, N-((1R,3r,5S,6r)-3-(6-chloro-1H-indazol-4-yl)-3-hydroxybicyclo[3.1.0]hexan-6-yl)-2-(trifluoromethoxy)isonicotinamide] are not above 500 nM and not above 500 nM.
The matching figures for `O=C(N[C@H]1[C@@H]2C[C@@](O)(c3cc(Cl)cc4[nH]ncc34)C[C@@H]21)c1ccc(F)c(C(F)(F)F)c1` [Example 172, N-((1R,3r,5S,6r)-3-(6-chloro-1H-indazol-4-yl)-3-hydroxybicyclo[3.1.0]hexan-6-yl)-4-fluoro-3-(trifluoromethyl)benzamide]: not above 500 nM and not above 500 nM.
For the compound `O[C@@H]1C[C@@H]2C[C@@](O)(c3cc(Cl)cc4[nH]ncc34)C[C@@H]2C1` [Example 32, (2r,3aR,5s,6aS)-2-(6-chloro-1H-indazol-4-yl)octahydropentalene-2,5-diol], the concentration for half-maximal inhibition (IC50) in experiment [1] is not above 500 nM; in experiment [2], 1000 to 5000 nM.
With `O=C(N[C@H]1[C@@H]2C[C@@](O)(c3cc(Cl)cc4[nH]ncc34)C[C@@H]21)c1cnon1` [Example 159, N-((1R,3r,5S,6r)-3-(6-chloro-1H-indazol-4-yl)-3-hydroxybicyclo[3.1.0]hexan-6-yl)-1,2,5-oxadiazole-3-carboxamide], the half-inhibitory concentration (IC50) in experiment [1] was not above 500 nM; in experiment [2], more than 5000 nM.
For `CC(=O)N1C[C@@H]2CN(c3c(C4CC4)ccc4cncn34)C[C@@H]2C1(C)C` (racemic) [Example 56, Racemic-1-((3aS,6aR)-5-(6-cyclopropylimidazo[1,5-a]pyridin-5-yl)-1,1-dimethylhexahydropyrrolo[3,4-c]pyrrol-2(1H)-yl)ethanone], the IC50 in experiment [1] and in experiment [2] was more than 5000 nM each time.
